Measured values published in patent US10875851B2, “Factor XIIa inhibitors” (Merck Sharp & Dohme Corp., priority 2016, dated 2020).

What follows are compounds tested against human Factor XIIa (Homo sapiens (Human), UniProt P00748) (assay: Factor XIIa Assay). Details: purified human Factor XIIa 500 pM; substrate n-Acetyl-Lys-Pro-Arg-AFC 100 μM; pH 7.4; read-out: FXIIa IC50.
Type: biochemical
Procedure: The effectiveness of a compound of the present invention as an inhibitor of Coagulation Factor XIIa can be determined using a relevant purified serine protease, and an appropriate synthetic substrate. The rate of hydrolysis of the chromogenic or fluorogenic substrate by the relevant serine protease was measured both in the absence and presence of compounds of the present invention. Assays were conducted at room temperature or at 37° C. […] A decrease in the rate of fluorescence change in the presence of inhibitor is indicative of enzyme inhibition. Such methods are known to one skilled in the art.
Factor XIIa activity determinations were made in 50 mM HEPES buffer containing 150 mM NaCl, 5 mM CaCl2, and 0.1% PEG 8000 (polyethylene glycol; JT Baker or Fisher Scientific) at pH 7.4. Determinations were made using purified human Factor XIIa at a final concentration of 500 pM (Sekisui Diagnostics) and the synthetic substrate, n-Acetyl-Lys-Pro-Arg-AFC, TFA salt (Sigma #C6608) at a concentration of 100 μM.
Times required to achieve equilibration between enzyme and inhibitor were determined in control experiments. Initial velocities of product formation in the absence (Vo) or presence of inhibitor (Vi) were measured. IC50 was determined as the concentration of I yielding Vi=Vo/2.

Chain of human Factor XIIa (P00748 373-615): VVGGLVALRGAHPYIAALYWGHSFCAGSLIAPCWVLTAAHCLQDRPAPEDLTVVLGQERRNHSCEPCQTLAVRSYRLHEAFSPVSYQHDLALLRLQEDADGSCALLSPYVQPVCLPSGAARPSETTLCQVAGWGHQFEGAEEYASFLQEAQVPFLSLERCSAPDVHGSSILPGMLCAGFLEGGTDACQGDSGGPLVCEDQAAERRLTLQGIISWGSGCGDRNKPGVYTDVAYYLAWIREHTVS

Structure (SMILES) | IC50 [nM]
CN(C)CCCC[C@H](C(=O)N1CCN(C2=NC(C)(C)C(c3ccccc3)O2)C[C@H]1C(=O)NCc1ccc(CN)c(Cl)c1)N(C)C (stereo partly drawn) [Example 149, (2S)-N-[4-(aminomethyl)-3-chlorobenzyl]-4-(4,4-dimethyl-5-phenyl-4,5-dihydro-1,3-oxazol-2-yl)-1-(N^2,N^2,N^6,N^6-tetramethyl-D-lysyl)piperazine-2-carboxamide] | 34.9
O=C(NCc1cccs1)[C@@H]1CN(C(=O)Oc2cccc3ccc(O)nc23)CCN1C(=O)[C@@H](CC1CCCCC1)NC1CCCCC1 [Example 33, 2-hydroxyquinolin-8-yl (3S)-4-(N,3-dicyclohexyl-D-alanyl)-3-[(thiophen-2-ylmethyl)carbamoyl]piperazine-1-carboxylate] | 20
C[C@@H]1N=C(N2CCN(C(=O)[C@H](N)CCCCN3CCCCC3)[C@H](C(=O)NCc3cc4cnccc4s3)C2)O[C@H]1c1ccccc1 [Example 163, (2S)-4-[(4S,5S)-4-methyl-5-phenyl-4,5-dihydro-1,3-oxazol-2-yl]-1-(6-piperidin-1-yl-D-norleucyl)-N-(thieno[3,2-c]pyridin-2-ylmethyl)piperazine-2-carboxamide] | 15
COc1cc(CNC(=O)[C@@H]2CN(C(=O)Oc3cccc4ccccc34)CCN2C(=O)[C@@H](CC2CCCCC2)NC2CCC3(CC2)CCN(Cc2ccccc2)C3)ccc1CN (stereo partly drawn) [Example 28, naphthalen-1-yl (3S)-3-{[4-(aminomethyl)-3-methoxybenzyl]carbamoyl}-4-[N-(2-benzyl-2-azaspiro[4.5]dec-8-yl)-3-cyclohexyl-D-alanyl]piperazine-1-carboxylate] | 3.9
CC(C)N[C@H](CCCCN1CCCCC1)C(=O)N1CCN(C2=N[C@@H](C)[C@H](c3ccccc3)O2)C[C@H]1C(=O)NCc1ccc2[nH]cc(Cl)c2c1 [Example 171, (2S)-N-[(3-chloro-1H-indol-5-yl)methyl]-1-[N-(1-methylethyl)-6-piperidin-1-yl-D-norleucyl]-4-[(4S,5S)-4-methyl-5-phenyl-4,5-dihydro-1,3-oxazol-2-yl]piperazine-2-carboxamide] | 0.5
C[C@@H]1N=C(N2CCN(C(=O)[C@@H](CCCCN(C)C)NC3CCC(CN)CC3)[C@H](C(=O)NCc3cccs3)C2)O[C@H]1c1ccccc1 (stereo partly drawn) [Example 133, (2S)-1-{N^2-[4-(aminomethyl)cyclohexyl]-N^6,N^6-dimethyl-D-lysyl}-4-[(4S,5S)-4-methyl-5-phenyl-4,5-dihydro-1,3-oxazol-2-yl]-N-(thiophen-2-ylmethyl)piperazine-2-carboxamide] | 6.6
Cc1ccc(OC(=O)N2CCN(C(=O)[C@@H](CCCCN3CCCC3C)NC3CCC4(CC3)CCN(Cc3ccccc3)C4)[C@H](C(=O)NCc3cccs3)C2)c(Cl)c1C (stereo partly drawn) [Example 110, 2-chloro-3,4-dimethylphenyl (3S)-4-[N-(2-benzyl-2-azaspiro[4.5]dec-8-yl)-6-(2-methylpyrrolidin-1-yl)-D-norleucyl]-3-[(thiophen-2-ylmethyl)carbamoyl]piperazine-1-carboxylate] | 0.3
O=C(NCc1cccs1)[C@@H]1CN(C(=O)Oc2cccc3c2CNCC3)CCN1C(=O)[C@@H](CC1CCCCC1)NC1CCCCC1 [Example 37, 1,2,3,4-tetrahydroisoquinolin-8-yl (3S)-4-(N,3-dicyclohexyl-D-alanyl)-3-[(thiophen-2-ylmethyl)carbamoyl]piperazine-1-carboxylate] | 5.3
CC(C)N[C@H](CCCCN1CCCCC1)C(=O)N1CCN(C2=N[C@@H](C)[C@H](c3ccccc3)O2)C[C@H]1C(=O)NCc1cccc(Cl)c1 [Example 175, (2S)-N-(3-chlorobenzyl)-1-[N-(1-methylethyl)-6-piperidin-1-yl-D-norleucyl]-4-[(4S,5S)-4-methyl-5-phenyl-4,5-dihydro-1,3-oxazol-2-yl]piperazine-2-carboxamide] | 6.6
CC1(C)N=C(N2CCN(C(=O)[C@H](N)CCCCN3CCCCC3)[C@H](C(=O)NCc3cc4cnccc4s3)C2)OC1c1ccccc1 (stereo partly drawn) [Example 158, (2S)-4-(4,4-dimethyl-5-phenyl-4,5-dihydro-1,3-oxazol-2-yl)-1-(6-piperidin-1-yl-D-norleucyl)-N-(thieno[3,2-c]pyridin-2-ylmethyl)piperazine-2-carboxamide] | 54.4
COc1cc(CNC(=O)[C@@H]2CN(C(=O)Oc3cccc4ccccc34)CCN2C(=O)[C@@H](CC2CCCCC2)NC2CCCCC2)ccc1CN [Example 24, naphthalen-1-yl (3S)-3-{[4-(aminomethyl)-3-methoxybenzyl]carbamoyl}-4-(N,3-dicyclohexyl-D-alanyl)piperazine-1-carboxylate] | 1.6
C[C@@H]1N=C(N2CCN(C(=O)[C@@H](CCCCN(C)C)NC3CCC4(CC3)CCN(Cc3ccccc3)C4)[C@H](C(=O)NCc3cccs3)C2)O[C@H]1c1ccccc1 (stereo partly drawn) [Example 142, (2S)-1-[N^2-(2-benzyl-2-azaspiro[4.5]dec-8-yl)-N^6,N^6-dimethyl-D-lysyl]-4-[(4S,5S)-4-methyl-5-phenyl-4,5-dihydro-1,3-oxazol-2-yl]-N-(thiophen-2-ylmethyl)piperazine-2-carboxamide] | 0.4
CS(=O)(=O)NCCCC[C@@H](NC1CCCCC1)C(=O)N1CCN(C2=NCC3(CCCCC3)O2)C[C@H]1C(=O)NCc1cccs1 [Example 126, (2S)-1-[N^2-cyclohexyl-N^6-(methylsulfonyl)-D-lysyl]-4-(1-oxa-3-azaspiro[4.5]dec-2-en-2-yl)-N-(thiophen-2-ylmethyl)piperazine-2-carboxamide] | 21.1
Cc1ccc(OC(=O)N2CCN(C(=O)[C@@H](CCCCN(C)C)NC3CCC4(CC3)CCN(Cc3ccccc3)C4)[C@H](C(=O)NCc3cccs3)C2)c(Cl)c1C (stereo partly drawn) [Example 108, 2-chloro-3,4-dimethylphenyl (3S)-4-[N^2-(2-benzyl-2-azaspiro[4.5]dec-8-yl)-N^6,N^6-dimethyl-D-lysyl]-3-[(thiophen-2-ylmethyl)carbamoyl]piperazine-1-carboxylate] | 0.3
CC(C)N[C@H](CCCCN1CCCCC1)C(=O)N1CCN(C2=N[C@@H](C)[C@H](c3ccccc3)O2)C[C@H]1C(=O)NCc1cc(CN)cs1 [Example 178, (2S)-N-{[4-(aminomethyl)thiophen-2-yl]methyl}-1-[N-(1-methylethyl)-6-piperidin-1-yl-D-norleucyl]-4-[(4S,5S)-4-methyl-5-phenyl-4,5-dihydro-1,3-oxazol-2-yl]piperazine-2-carboxamide] | 4.6
COc1cc(CNC(=O)[C@@H]2CN(C3=N[C@@H](C)[C@H](c4ccccc4)O3)CCN2C(=O)[C@@H](CCCCN2CCCCC2)NC(C)C)ccc1CN [Example 118, (2S)-N-[4-(aminomethyl)-3-methoxybenzyl]-1-[N-(1-methylethyl)-6-piperidin-1-yl-D-norleucyl]-4-[(4S,5S)-4-methyl-5-phenyl-4,5-dihydro-1,3-oxazol-2-yl]piperazine-2-carboxamide] | 8.1
NCc1ccc(OC(=O)N2CCN(C(=O)[C@@H](CC3CCCCC3)NC3CCCCC3)[C@H](C(=O)NCc3cccs3)C2)c(Cl)c1 [Example 21, 4-(aminomethyl)-2-chlorophenyl (3S)-4-(N,3-dicyclohexyl-D-alanyl)-3-[(thiophen-2-ylmethyl)carbamoyl]piperazine-1-carboxylate] | 6.7
Cc1ccc(OC(=O)N2CCN(C(=O)[C@@H](CCCCN(C)C)N(C)C3CCCCC3)[C@H](C(=O)NCc3cccs3)C2)c(Cl)c1C [Example 101, 2-chloro-3,4-dimethylphenyl (3S)-4-(N^2-cyclohexyl-N^2,N^6,N^6-trimethyl-D-lysyl)-3-[(thiophen-2-ylmethyl)carbamoyl]piperazine-1-carboxylate] | 0.1
COc1cc(CNC(=O)[C@@H]2CN(C(=O)Oc3ccc4ccccc4c3Cl)CCN2C(=O)[C@@H](CCCCNS(C)(=O)=O)NC2CCC3(CC2)CCN(Cc2ccccc2)C3)ccc1CN (stereo partly drawn) [Example 74, 1-chloronaphthalen-2-yl (3S)-3-{[4-(aminomethyl)-3-methoxybenzyl]carbamoyl}-4-[N^2-(2-benzyl-2-azaspiro[4.5]dec-8-yl)-N^6-(methylsulfonyl)-D-lysyl]piperazine-1-carboxylate] | 3.7
CN(C)CCCC[C@H](C(=O)N1CCN(C2=NC(C)(C)C(c3ccccc3)O2)C[C@H]1C(=O)NCc1ccc(CN)c(F)c1)N(C)C (stereo partly drawn) [Example 148, (2S)-N-[4-(aminomethyl)-3-fluorobenzyl]-4-(4,4-dimethyl-5-phenyl-4,5-dihydro-1,3-oxazol-2-yl)-1-(N^2,N^2,N^6,N^6-tetramethyl-D-lysyl)piperazine-2-carboxamide] | 12.7
C[C@@H]1N=C(N2CCN(C(=O)[C@@H](CC3CCN(C4CCCCC4)CC3)NC3CCCCC3)[C@H](C(=O)NCc3cccs3)C2)O[C@H]1c1ccccc1 [Example 183, (2S)-[N-cyclohexyl-3-(1-cyclohexylpiperidin-4-yl)-D-alanyl]-4-[(4S,5S)-4-methyl-5-phenyl-4,5-dihydro-1,3-oxazol-2-yl]-N-(thiophen-2-ylmethyl)piperazine-2-carboxamide] | 2.4
CC(C)(C)C(=O)N1CCC([C@@H](NC2CCCCC2)C(=O)N2CCN(C(=O)Oc3ccccc3Cl)C[C@H]2C(=O)NCc2cccs2)CC1 [Example 69, 2-chlorophenyl (3S)-4-{(2R)-2-(cyclohexylamino)-2-[1-(2,2-dimethylpropanoyl)piperidin-4-yl]acetyl}-3-[(thiophen-2-ylmethyl)carbamoyl]piperazine-1-carboxylate] | 8.4
